Measured values reported in the supplement of paper PMC10307832.

Tests used:
Assay in all cases: relative viability (nuclei count vs DMSO), 5 days (fraction); higher = more cells survive
[1] = compound: CCOC1=CC=CC=C1N=NC2=C(NN(C2=O)C3=NC(=CS3)C4=CC=CC=C4)C [BAM7] + CS(=O)(=O)CCNCc1ccc(-c2ccc3ncnc(Nc4ccc(OCc5cccc(F)c5)c(Cl)c4)c3c2)o1 [Lapatinib] (partner 2 µM)
Procedure, shortened: (§1)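 Lung cancer cell lines were pin-tool dosed in 1536-well plates on the day after seeding, with either a lone drug or a fixed anchor-drug dose plus five library-drug doses (not always all listed) in √10 steps. Nuclei were counted on 4× images after 5 days. Relative viability is the ratio of treated-well to vehicle-well nuclei counts, with each value a median of duplicate plates.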

[2] = compound: CCn1c(-c2nonc2N)nc2c(C#CC(C)(C)O)ncc(OC[C@H]3CCCNC3)c21 + CC(=O)c1c(C)c2cnc(Nc3ccc(N4CCNCC4)cn3)nc2n(C2CCCC2)c1=O [Palbociclib] (partner 0.5 µM)
Procedure, shortened: as §1

[3] = compound: CCn1c(-c2nonc2N)nc2c(C#CC(C)(C)O)ncc(OC[C@H]3CCCNC3)c21 + N=C(N)NC(=N)NCCc1ccccc1 [Phenformin] (partner 250 µM)
Procedure, shortened: as §1

[4] = compound: CCn1c(-c2nonc2N)nc2c(C#CC(C)(C)O)ncc(OC[C@H]3CCCNC3)c21 + CCNC(=O)c1noc(-c2cc(C(C)C)c(O)cc2O)c1-c1ccc(CN2CCOCC2)cc1 [Luminespib] (partner 0.01 µM)
Procedure, shortened: as §1

Cell Line	relative viability ([1]; first compound 0.5 µM)	relative viability ([1]; first compound 5 µM)	relative viability ([1]; first compound 15.81 µM)	relative viability ([1]; first compound 50 µM)	relative viability ([2]; first compound 0.01 µM)	relative viability ([2]; first compound 0.03162 µM)	relative viability ([2]; first compound 0.1 µM)	relative viability ([2]; first compound 0.3162 µM)	relative viability ([2]; first compound 1 µM)	relative viability ([3]; first compound 0.01 µM)	relative viability ([3]; first compound 0.03162 µM)	relative viability ([3]; first compound 0.1 µM)	relative viability ([3]; first compound 0.3162 µM)	relative viability ([3]; first compound 1 µM)	relative viability ([4]; first compound 0.01 µM)	relative viability ([4]; first compound 0.03162 µM)	relative viability ([4]; first compound 0.1 µM)	relative viability ([4]; first compound 0.3162 µM)	relative viability ([4]; first compound 1 µM)
SW 1573	1.17	1.23	1.09	1.33	0.334	0.402	0.326	0.241	0.215	0.344	0.274	0.24	0.209	0.194	0.215	0.563	0.178	0.584	0.342
NCI-H2347	0.968	1.26	0.899	1.03	0.394	0.445	0.492	0.422	0.435	0.442	0.307		0.381	0.396	0.396	0.0975		0.516	0.31
NCI-H2009	1.03	1.06	0.898	0.938	0.202	0.223	0.229	0.186	0.241	0.473	0.491	0.519	0.458	0.452	1.07	0.981	1.06	0.986	0.983
HCC-15	0.912	0.896	0.908	0.865	0.76	0.71	0.716	0.614	0.683	0.439	0.502	0.456	0.395	0.404	0.291	0.26	0.468	0.345	0.268
HCC-44	1.09	1.02	1	0.983	0.973	0.939	0.964	0.813	1.04	0.19	0.183	0.194	0.184	0.189			0.994	0.906	1.21
COR-L23	1.28	1.14	0.914	1.02	0.22	0.288	0.226	0.231	0.226	0.444	0.399	0.422	0.373	0.389	0.669	0.642	0.696	0.57	0.568
NCI-H727	0.923	1.1	0.788	0.834	0.667	0.695	0.52	0.647	0.734	0.468	0.461	0.618	0.515	0.502	0.324	0.621	0.311	0.313	0.389
NCI-H2087	1.12	1.17	1.08	0.934	0.214		0.225	0.248	0.293	0.454	0.572	0.478	0.43	0.465	0.128	0.154	0.165	0.152	0.163
BEN	0.754	0.72	0.676	0.836	0.481	0.475	0.432	0.463	0.474	0.276	0.292	0.28	0.297	0.287	0.235	0.337	0.332	0.571	0.452
EKVX	0.199	0.201	0.192	0.507	0.411	0.408	0.378	0.374	0.419	0.232	0.231	0.217	0.217	0.195	0.788	0.887	0.867	0.878	0.911
LXF-289	0.947	0.951	0.913	0.851	0.63	0.568	0.608	0.581	0.605	0.511	0.54	0.507	0.511	0.534	0.604	0.822	0.627	0.617	0.701
ABC-1		1.24	1.16	1.36	0.578		0.678	0.735	0.555	0.244	0.204	0.236	0.228	0.255		0.533	1.04	0.403	0.682
NCI-H650	0.787	0.92	0.842	1.13	0.318	0.33	0.304	0.368	0.325	0.435	0.414	0.429	0.415	0.444	0.736	0.835	0.814	0.791	0.818
NCI-H1650	0.758	0.726	0.806	0.855	0.382	0.291	0.396	0.153	0.276	0.457	0.478	0.404	0.277	0.303	0.187	0.202	0.182	0.199	0.206
NCI-H2085	0.764	0.612	0.74	0.881	0.49	0.426	0.481	0.455	0.48	0.627	0.694	0.674	0.706	0.719	0.417	0.382	0.492	0.42	0.463
NCI-H1793	0.8	0.636	0.64	0.93	0.295	0.326		0.295	0.315	0.339	0.436	0.371	0.331	0.401	0.24	0.237	0.212	0.189	0.233
LC-2-ad	1.09	0.948	0.933	0.859	0.547	0.455	0.546	0.502	0.462	0.571	0.523	0.556	0.537	0.614	0.964	0.967	1.1	1.04	0.974
